# Marks after values point to notes of the source that are not given here.
# B1: IFN-γ: recombinant human immune interferon produced in Escherichia coli (protein, UniProt P01579 24-161, looked up)
# Interferon gamma: QDPYVKEAENLKKYFNAGHSDVADNGTLFLGILKNWKEESDRKIMQSQIVSFYFKLFKNFKDDQSIQKSVETIKEDMNVKFFNSNKKKRDDFEKLTNYSVTDLNVQRKAIHELIQVMAELSPAAKTGKRKRSQMLFRG
# Tests used:
# c-erbB-2 = test: FACS analysis of c-erbB-2 surface expression in T47D cells; type: cell-based, human; details: 72 hr; for c-erbB-2 level of upregulation versus untreated control cells (equivalent to 1.0) / Antigenic Expression (MFI) c-erbB-2: 0.1 μg/ml TPA or MEZ; for c-erbB-2 level of upregulation versus untreated control cells (equivalent to 1.0): presence or absence of 0.1 μg/ml H-7; for Antigenic Expression (MFI) c-erbB-2: presence or absence of 0.1 μg/ml H-7, FACStar
# Text: IgG1 murine monoclonal antibody Cu18 and Cu46 recognize two different epitopes of a highly restricted breast carcinoma associated glycoprotein of Mr 225,000 to 250,000 (BCA 225). This TAA is expressed intracytoplasmically and on the membrane of 94% of breast tumors tested and in the T47D human breast carcinoma cell line. BCA 225 is shed into the culture medium by T47D cells and into the sera of breast cancer patients. IgG2a monoclonal antibody L243 (anti HLA Class II-DR) recognizes a monomorphic HLA Class II-DR-α epitope (ATCC M355). Monoclonal antibody CL203.4 [40], which recognizes ICAM-I, was kindly provided by Dr. S. Ferrone, New York Medical College, NY. The c-erbB-2 monoclonal antibody which recognizes the extracellular domain of c-erbB-2 was obtained from Triton Biosciences, Inc., Alamedia, Calif. Monoclonal antibodies Cu18 and Cu46 were used at 0.05 μg/ml and monoclonal antibodies interacting with HLA Class II-DR, ICAM-1 and c-erbB-2 were used at 10 μg/ml. For each experiment, isotype matched control backgrounds (IgG for Cu18, Cu46 and ICAM-1, IgG2a for HLA Class Ii and IgG2b for c-erbB-2) were subtracted from the experimental results. Background from antimouse IgG FITC antibody was also subtracted from experimental results. Applicants never observed backgrounds higher than 2% of total cells for isotypic mouse IgG or higher than 5% for antimouse IgG FITC.
# T47D cells treated with the various compounds were analyzed by flow cytometry using appropriate monoclonal antibody concentrations as described previously. Briefly, 1×10^5 cells were incubated with the test antibody for 30 min at 4° C., washed 3× with PBS and incubated with a goat a mouse F (ab)2 FITC conjugated test antibody at a 1:40 dilution for 30 min at 4° C. Cells were then washed 3× with PBS and analyzed on a FACStar (Beckon Dickinson, Mountain View, Calif.) or a Coulter Epics IV FACS (Coulter, Hialeah, Fla.). Results are expressed as mean fluorescence intensity (MFI) units which were determined as described previously. MFI=(mean channel fluorescence in fluorescence positive antibody-binding cells×% of fluorescence positive antibody-binding cells)−(mean channel fluorescence in unstained cells×% of fluorescence positive cells in the unstained population). All studies were performed a minimum of three or four times with duplicate samples in each experiment. Replicate samples within individual experiments varied by ≦10% and variation between experiments were generally ≦20%.
# MoAb K56 [1] = test: FACS analysis of MoAb K56 binding in WiDr human colon carcinoma cells; type: cell-based
# Method: (§1) Cells were plated in 10 cm plates, media was changed 24 hours later with no addition (control) or addition of the indicated compounds and cells were incubated at 37° C. for the indicated time (72 or 96 hours). Cells were resuspended using 10× EDTA and antigen expression was determined as described (Leon, Mesa-Tejada, Gutierrez, Estabrook, Greiner, Schlom & Fisher: Anticancer Res. 9:1639-1648, 1989; Leon, Gutierrez, Jiang, Estabrook, Waxman & Fisher: Cancer Immunol. Immmunother. 35:315-324, 1992).
# MoAb K56 [2] = test: FACS analysis of MoAb K56 binding in CBS human colon carcinoma cells; type: cell-based; details: 96 hours
# Method: as §1, with “for” for “for the indicated time (72 or”, “hours.” for “hours).”, “Breiner,” for “Greiner,”, “Immuno. Immunother. 35:315-324” for “Immunol. Immmunother. 35:315-324,”
# HLA-DR = test: FACS analysis of HLA-DR (MoAb L243) in CBS human colon carcinoma cells; type: cell-based; details: 96 hours
# Method: as §1, with “for” for “for the indicated time (72 or”, “hours.” for “hours).”, “Breiner,” for “Greiner,”, “Immuno. Immunother. 35:315-324” for “Immunol. Immmunother. 35:315-324,”
# [3] = 72 Hour Treatment, MEZ 100 ng/ml, IFN-γ 100 U/ml
# [4] = 96 Hour Treatment, MEZ 100 ng/ml, IFN-γ 100 U/ml
Molecule,c-erbB-2 level of upregulation versus untreated control cells (equivalent to 1.0) (c-erbB-2),Antigenic Expression (MFI) c-erbB-2 (c-erbB-2),Monoclonal Antibody Binding (MFI) MoAb K56 (MoAb K56 [1]; [3]),Monoclonal Antibody Binding (MFI) MoAb K56 (MoAb K56 [1]; [4]),"Monoclonal Antibody Binding (MFI) MoAb K56 (MoAb K56 [2]; MEZ 1100 ng/ml, IFN-γ 100 U/ml)","Monoclonal Antibody Binding (MFI) MoAb L243 (HLA-DR) (HLA-DR; MEZ 1100 ng/ml, IFN-γ 100 U/ml)",further results
"CCCCCCCCCCCCCC(=O)O[C@@H]1[C@@H](C)[C@@]2(O)[C@@H](C=C(CO)C[C@]3(O)C(=O)C(C)=C[C@@H]23)[C@H]2C(C)(C)[C@]12OC(C)=O [TPA, 12-0-tetradecanoyl-phorbol-13-acetate]",(2.3),"16,100 MFI",–,–,–,–,–
"CC1CNCCN1S(=O)(=O)c1cccc2cnccc12.Cl.Cl (stereo not shown) [H-7, 1-(5-isoquinolinesulfonyl)-2-methylpiperazine dihydrochloride]",(1.0),"7,045 MFI",–,–,–,–,–
"C=C(C)[C@@]12O[C@@]3(c4ccccc4)O[C@@H]1[C@@H]1[C@@H]4O[C@]4(CO)[C@@H](O)[C@]4(O)C(=O)C(C)=C[C@H]4[C@@]1(O3)[C@H](C)[C@H]2OC(=O)/C=C/C=C/c1ccccc1 [MEZ, mezerein]",(2.6),"18,385 MFI",964* MFI,1104 MFI,3002* MFI,9726* MFI,"efficacy of upregulation of c-erbB-2 (fold-change in MFI, FIG. 2) (c-erbB-2; 0.1 μg/ml of ADMB, TPA or MEZ): most effective PKC activator tested"
"CCCCCCCCCCN(C)c1cc(CO)cc(NC(C)=O)c1 [ADMB, 3-(N-acetylamino)-5-(N-decyl-N-methylamino)-benzyl alcohol]",–,–,–,–,–,–,"Monoclonal Antibody Binding (MFI) MoAb K56 (MoAb K56 [1]; 72 Hour Treatment, ADMB 0.01 μg/ml): 844 MFI; Monoclonal Antibody Binding (MFI) MoAb K56 (MoAb K56 [1]; 72 Hour Treatment, ADMB 0.1 μg/ml): 715 MFI; Monoclonal Antibody Binding (MFI) MoAb K56 (MoAb K56 [1]; 72 Hour Treatment, ADMB 1.0 μg/ml): 879 MFI; Monoclonal Antibody Binding (MFI) MoAb K56 (MoAb K56 [1]; 96 Hour Treatment, ADMB 0.01 μg/ml): 827 MFI; Monoclonal Antibody Binding (MFI) MoAb K56 (MoAb K56 [1]; 96 Hour Treatment, ADMB 0.1 μg/ml): 1116 MFI; Monoclonal Antibody Binding (MFI) MoAb K56 (MoAb K56 [1]; 96 Hour Treatment, ADMB 1.0 μg/ml): 1008 MFI; Monoclonal Antibody Binding (MFI) MoAb K56 (MoAb K56 [2]; ADMB 0.01 μg/ml): 2126 MFI; Monoclonal Antibody Binding (MFI) MoAb K56 (MoAb K56 [2]; ADMB 0.1 μg/ml): 1715 MFI; Monoclonal Antibody Binding (MFI) MoAb K56 (MoAb K56 [2]; ADMB 1.0 g/ml): 2420 MFI; Monoclonal Antibody Binding (MFI) MoAb L243 (HLA-DR) (HLA-DR; ADMB 0.01 μg/ml): 4112 MFI; Monoclonal Antibody Binding (MFI) MoAb L243 (HLA-DR) (HLA-DR; ADMB 0.1 μg/ml): 3328 MFI; Monoclonal Antibody Binding (MFI) MoAb L243 (HLA-DR) (HLA-DR; ADMB 1.0): 6870* MFI"
B1,–,–,1046* MFI,1021 MFI,3126* MFI,14972* MFI,activity in increasing Class II HLA-DR antigens relative to ADMB (HLA-DR): approximately 2 ×

# Source: patent US20020040062A1, “Protein kinase C activators and their use in decreasing expression of cell antigens” (The Trustees of Columbia University, priority 1993, published 2002)
